{"source": "patent EP0309424A2", "about": "“New amidino derivatives” (ISTITUTO DE ANGELI S.p.A., priority 1987, dated 1989)", "note": "Structures can show the parent of a compound that is named as a salt."}
{"molecular_target": "T1, muscarinic receptors of the cerebral cortex (Rattus norvegicus, UniProt P08482)", "T1 construct": "displacement of ^3H-pirenzepine from cerebral cortex homogenate; from tissue; host or cells: rat cerebral cortex homogenate", "T1 sequence (P08482 1-460)": "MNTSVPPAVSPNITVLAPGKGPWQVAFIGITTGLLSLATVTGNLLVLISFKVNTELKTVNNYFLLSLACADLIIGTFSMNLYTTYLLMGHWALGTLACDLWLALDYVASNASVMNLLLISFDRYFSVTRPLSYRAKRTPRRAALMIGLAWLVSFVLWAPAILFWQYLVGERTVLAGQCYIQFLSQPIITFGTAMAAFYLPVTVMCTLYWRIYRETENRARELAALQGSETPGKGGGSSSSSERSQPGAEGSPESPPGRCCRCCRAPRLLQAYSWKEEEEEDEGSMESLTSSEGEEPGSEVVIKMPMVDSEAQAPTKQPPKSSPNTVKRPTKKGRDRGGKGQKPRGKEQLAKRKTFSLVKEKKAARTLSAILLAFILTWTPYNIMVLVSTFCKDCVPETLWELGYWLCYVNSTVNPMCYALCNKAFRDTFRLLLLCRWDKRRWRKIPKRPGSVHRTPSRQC", "assay": "Antimuscarinic activity (in vitro binding studies): displacement of 3H-pirenzepine from cerebral cortex homogenate", "set-up": "species or system male CD-COOBBS rats", "conditions": "not given", "method": "(§1) Antimuscarinic activity was examined by studying the displacement of ^3H-pirenzepine from cerebral cortex homogenate according to the procedure reported below: • The cerebral cortex donors were male CD-COOBBS rats, 220-250 g body weight. The homogenization process was carried out in a Potter-Evelhjem apparatus in the presence of Na^+/Mg^++ HEPES buffer; pH 7.4 (100 mM NaCI, 10 mM MgC12, 20 mM HEPES), by filtering the suspension through two layers of cheesecloth. Binding curves for the under study compounds were derived indirectly from competition experiments against 0.5 nM ^3H-pirenzepine labelling the muscarinic receptors of the cerebral cortex. 1 ml of the homogenate was incubated for 45 min at 30° C in the presence of a marker ligand and different concentrations of the cold ligand, conditions under which equilibrium was reached as determined by appropriate association experiments. The incubation was terminated by centrifugation (12,000 rpm for 3 min) at room temperature using an Eppendorf microcentrifuge. The resultant pellet was washed twice with 1.5 ml saline to remove the free radioactivity and it was allowed to drain for some hours. The tips of the tubes containing the pellet were cut off and 200 µl of tissue solubilizer (Lumasolve, Lumac) were added and left to stand overnight. Radioactivity was then counted after addition of 4 ml of liquid scintillation mixture (Dimilume/Toluene 1:10 v:v, Packard)\n(§2) Non-specific binding avaraged less than 30%. KD values (dissociation constants) were obtained by non-linear regression analysis on the basis of a one binding site model with TOPFIT-pharmacokinetic programme package (G. HEINZEL, \"Pharmacokinetics during drug development: data analysis and evaluation techniques\" Eds. G. BOLZER and J.M. VAN ROSSUM; p. 207, G. Fisher, New York, 1982) after correction for the radioligand occupancy shift according to the equation: Ko = ICso/1 + *C/*KD, where \"C and *KD represent the concentration and the dissociation constant of the radioligand used, respectively.", "units": {"Ki": "nM"}}
{"molecule": "N=C(N)N1C2CCC1CC(OC(=O)C(CO)c1ccccc1)C2", "note": "(racemic) [Compound 1, N-guanyl-Noratropine]", "Ki": 7}
{"molecule": "CC(=N)N1C2CC(OC(=O)C(CO)c3ccccc3)CC1C1OC12", "note": "(single isomer, unassigned; (-)) [Compound 65, (-)-N-iminoethyl-norscopolamine]", "Ki": 2}
{"molecule": "CC(=N)N1C2CCC1CC(OC(=O)C(CO)c1ccccc1)C2", "note": "(racemic) [Compound 64, N-iminoethyl-noratropine]", "Ki": 3.4}
{"molecular_target": "T1, muscarinic receptors of the cerebral cortex", "assay": "Antimuscarinic activity (in vitro binding studies): displacement of 3H-pirenzepine from cerebral cortex homogenate", "set-up": "species or system male CD-COOBBS rats", "conditions": "competition against 0.5 nM 3H-pirenzepine, rat cerebral cortex homogenate, 45 min at 30° C, corrected for radioligand occupancy shift; read-out: Dissociation constants (KD) for 3H-pirenzepine binding", "method": "as §1, §2", "units": {"Ki": "nM"}}
{"molecule": "CN=CN1CCC(=C(c2ccccc2)c2ccccc2)CC1", "note": "[Compound 28, Piperidine,4-(diphenylmethylene)-,1-[N-methyl-(iminomethyl)]]", "Ki": 32}
{"molecule": "N=CN1CCN(CC(O)(c2ccccc2)C2CCCCC2)CC1", "note": "(stereo not shown) [Compound 35, N-iminomethyl-N'-[(2-hydroxy-2-phenyl-2-cydohexyl)-ethyl]-piperazine]", "Ki": 12}
{"molecule": "N=C(N)N1CCC(OC(=O)C(c2ccccc2)c2ccccc2)CC1", "note": "[Compound 14, Benzeneacetic acid,a-phenyl-,1-guanyl-4-piperidinyl ester]", "Ki": 15}
{"molecule": "N=C(N)N1CCN(CC(O)(c2ccccc2)C2CCCCC2)CC1", "note": "(stereo not shown) [Compound 4, N-guanyl-N'-[(2-phenyl-2-cyclohexyl-2-hydroxy)-ethyl]-piperazine]", "Ki": 17}
{"molecule": "CC(=N)N1CCN(CC(O)(c2ccccc2)C2CCCCC2)CC1", "note": "(stereo not shown) [Compound 62, N-(iminoethyl)-N'-[(2-hydroxy-2-phenyl-2-cyclohexyl)ethyl]-piperazine]", "Ki": 30}
{"molecule": "N=C(N)N1CCC(CC(O)(c2ccccc2)c2ccccc2)CC1", "note": "[Compound 24, 2-[(N-guanyl-piperidin-4-yl)]-1,1-diphenyl-ethanol]", "Ki": 38}
{"molecule": "N=CN1CCC(OC(=O)C(c2ccccc2)c2ccccc2)CC1", "note": "[Compound 34, Benzeneacetic acid,α-phenyl,1-(iminomethyl)-4-piperidinyl ester, hydrochloride]", "Ki": 4.4}
